Results taken from ChEMBL document CHEMBL3885881, “DrugMatrix”.

Organism: Rattus norvegicus
Type: toxicity, organism-based, Sprague-Dawley
Details: in vivo, 24 h, time 1 day; for ABSOLUTE EOSINOPHIL / ABSOLUTE LYMPHOCYTE / ABSOLUTE MONOCYTE / ABSOLUTE SEGMENTED NEUTROPHIL / BASOPHIL / EOSINOPHIL / ERYTHROCYTE COUNT / HEMATOCRIT / HEMOGLOBIN / LEUKOCYTE COUNT / LYMPHOCYTE / MEAN CORPUSCULAR HEMOGLOBIN / MEAN CORPUSCULAR HEMOGLOBIN CONCENTRATION / MEAN CORPUSCULAR VOLUME / MONOCYTE / NEUTROPHIL / NUCLEATED RED BLOOD CELLS / PLATELET COUNT / ABSOLUTE BASOPHIL: tissue Blood; for ALANINE AMINOTRANSFERASE / ALBUMIN / ALKALINE PHOSPHATASE / ASPARTATE AMINOTRANSFERASE / BLOOD UREA NITROGEN / CARBON DIOXIDE / CHLORIDE / CHOLESTEROL / CREATININE / GLUCOSE / LACTATE DEHYDROGENASE / LIPASE / PHOSPHORUS / POTASSIUM / SODIUM / TOTAL BILIRUBIN / TOTAL PROTEIN / URIC ACID / CREATINE PHOSPHOKINASE: tissue Plasma
[1] = sc, 0 mg/kg, vehicle control, route mini-PUMP - SUBCUTANEOUS, dose level Control, vehicle 100 % SALINE
[2] = sc, […], route mini-PUMP - SUBCUTANEOUS, dose 0.44 mg/Kg, dose level High, vehicle 100 % SALINE
[3] = po, 0 mg/kg, vehicle control, route oral GAVAGE, dose level Control, vehicle 100 % WATER
[4] = po, 120 mg/kg, route oral GAVAGE, dose level High, vehicle 100 % WATER

Description: DrugMatrix - Regimen: Single

CNC[C@H](O)c1cccc(O)c1 [PHENYLEPHRINE]
ABSOLUTE EOSINOPHIL [1]: 26.17 CELLS/uL
ABSOLUTE LYMPHOCYTE [1]: 10985.83 CELLS/uL
ABSOLUTE MONOCYTE [1]: 234.5 CELLS/uL
ABSOLUTE SEGMENTED NEUTROPHIL [1]: 1753.5 CELLS/uL
BASOPHIL [1]: 0%
EOSINOPHIL [1]: 0.17%
ERYTHROCYTE COUNT [1]: 5.64 x10E6/uL
HEMATOCRIT [1]: 34.52%
HEMOGLOBIN [1]: 12.68 G/DL
LEUKOCYTE COUNT [1]: 13 x10E3/uL
LYMPHOCYTE [1]: 84.5%
MEAN CORPUSCULAR HEMOGLOBIN [1]: 22.5 pg
MEAN CORPUSCULAR HEMOGLOBIN CONCENTRATION [1]: 36.78 G/DL
MEAN CORPUSCULAR VOLUME [1]: 61.18 fL
MONOCYTE [1]: 1.83%
NEUTROPHIL [1]: 13.5%
NUCLEATED RED BLOOD CELLS [1]: 0.17 /100WBC
PLATELET COUNT [1]: 679.17 x10E3/uL
ALANINE AMINOTRANSFERASE [1]: 42.67 u/L
ALBUMIN [1]: 3.77 G/DL
ALKALINE PHOSPHATASE [1]: 291.17 u/L
ASPARTATE AMINOTRANSFERASE [1]: 74.5 u/L
BLOOD UREA NITROGEN [1]: 15.33 mg/dL
CARBON DIOXIDE [1]: 30 mmol/L
CHLORIDE [1]: 100.83 MEQ/L
CHOLESTEROL [1]: 65.33 mg/dL
CREATININE [1]: 0.15 mg/dL
GLUCOSE [1]: 179.83 mg/dL
LACTATE DEHYDROGENASE [1]: 162.67 u/L
LIPASE [1]: 8.5 u/L
PHOSPHORUS [1]: 12.2 mg/dL
POTASSIUM [1]: 5.73 MEQ/L
SODIUM [1]: 144.7 MEQ/L
TOTAL BILIRUBIN [1]: 0.15 mg/dL
TOTAL PROTEIN [1]: 5.87 G/DL
URIC ACID [1]: 1.93 mg/dL
ABSOLUTE EOSINOPHIL [2]: 0 CELLS/uL
ABSOLUTE LYMPHOCYTE [2]: 12992 CELLS/uL
ABSOLUTE MONOCYTE [2]: 416.33 CELLS/uL
ABSOLUTE SEGMENTED NEUTROPHIL [2]: 3025 CELLS/uL
BASOPHIL [2]: 0%
EOSINOPHIL [2]: 0%
ERYTHROCYTE COUNT [2]: 6.07 x10E6/uL
HEMATOCRIT [2]: 36.37%
HEMOGLOBIN [2]: 13.2 G/DL
LEUKOCYTE COUNT [2]: 16.43 x10E3/uL
LYMPHOCYTE [2]: 79%
MEAN CORPUSCULAR HEMOGLOBIN [2]: 21.77 pg
MEAN CORPUSCULAR HEMOGLOBIN CONCENTRATION [2]: 36.27 G/DL
MEAN CORPUSCULAR VOLUME [2]: 59.93 fL
MONOCYTE [2]: 2.33%
NEUTROPHIL [2]: 18.67%
NUCLEATED RED BLOOD CELLS [2]: 0 /100WBC
PLATELET COUNT [2]: 1118.67 x10E3/uL
ALANINE AMINOTRANSFERASE [2]: 37.33 u/L
ALBUMIN [2]: 3.83 G/DL
ALKALINE PHOSPHATASE [2]: 259 u/L
ASPARTATE AMINOTRANSFERASE [2]: 64.33 u/L
BLOOD UREA NITROGEN [2]: 11.67 mg/dL
CARBON DIOXIDE [2]: 30 mmol/L
CHLORIDE [2]: 101.67 MEQ/L
CHOLESTEROL [2]: 75.67 mg/dL
CREATININE [2]: 0.16 mg/dL
GLUCOSE [2]: 171.33 mg/dL
LACTATE DEHYDROGENASE [2]: 133.67 u/L
LIPASE [2]: 9 u/L
PHOSPHORUS [2]: 14.13 mg/dL
POTASSIUM [2]: 6.67 MEQ/L
SODIUM [2]: 146.87 MEQ/L
TOTAL BILIRUBIN [2]: 0.1 mg/dL
TOTAL PROTEIN [2]: 5.97 G/DL
URIC ACID [2]: 3.6 mg/dL

COCCc1ccc(OCC(O)CNC(C)C)cc1 (centres undefined) [METOPROLOL]
ABSOLUTE BASOPHIL [3]: 63.3 cells/µL
ABSOLUTE EOSINOPHIL [3]: 66.7 cells/µL
ABSOLUTE LYMPHOCYTE [3]: 8010 cells/µL
ABSOLUTE MONOCYTE [3]: 240 cells/µL
BASOPHIL [3]: 0.6%
EOSINOPHIL [3]: 0.6%
ERYTHROCYTE COUNT [3]: 6.25 x10E6/uL
HEMATOCRIT [3]: 40.47%
HEMOGLOBIN [3]: 12.83 G/DL
LEUKOCYTE COUNT [3]: 10.19 x10E3/uL
LYMPHOCYTE [3]: 78.7%
MEAN CORPUSCULAR HEMOGLOBIN [3]: 20.53 pg
MEAN CORPUSCULAR HEMOGLOBIN CONCENTRATION [3]: 31.73 G/DL
MEAN CORPUSCULAR VOLUME [3]: 64.67 fL
MONOCYTE [3]: 2.5%
NEUTROPHIL [3]: 17.07%
PLATELET COUNT [3]: 1297 x10E3/uL
ALANINE AMINOTRANSFERASE [3]: 32.67 u/L
ALBUMIN [3]: 3.9 G/DL
ALKALINE PHOSPHATASE [3]: 374 u/L
ASPARTATE AMINOTRANSFERASE [3]: 64.33 u/L
BLOOD UREA NITROGEN [3]: 14 mg/dL
CARBON DIOXIDE [3]: 45.67 mmol/L
CHLORIDE [3]: 103 MEQ/L
CHOLESTEROL [3]: 82.67 mg/dL
CREATINE PHOSPHOKINASE [3]: 216.33 u/L
CREATININE [3]: 0.17 mg/dL
GLUCOSE [3]: 161.33 mg/dL
LACTATE DEHYDROGENASE [3]: 103.67 u/L
LIPASE [3]: 8.67 u/L
PHOSPHORUS [3]: 11 mg/dL
POTASSIUM [3]: 6.83 MEQ/L
SODIUM [3]: 144.67 MEQ/L
TOTAL BILIRUBIN [3]: 0.27 mg/dL
TOTAL PROTEIN [3]: 6.27 G/DL
URIC ACID [3]: 0.67 mg/dL
ABSOLUTE BASOPHIL [4]: 66.7 cells/µL
ABSOLUTE EOSINOPHIL [4]: 90 cells/µL
ABSOLUTE LYMPHOCYTE [4]: 8230 cells/µL
ABSOLUTE MONOCYTE [4]: 290 cells/µL
BASOPHIL [4]: 0.6%
EOSINOPHIL [4]: 0.9%
ERYTHROCYTE COUNT [4]: 6.76 x10E6/uL
HEMATOCRIT [4]: 44.17%
HEMOGLOBIN [4]: 14.1 G/DL
LEUKOCYTE COUNT [4]: 10.39 x10E3/uL
LYMPHOCYTE [4]: 79.03%
MEAN CORPUSCULAR HEMOGLOBIN [4]: 20.87 pg
MEAN CORPUSCULAR HEMOGLOBIN CONCENTRATION [4]: 31.9 G/DL
MEAN CORPUSCULAR VOLUME [4]: 65.33 fL
MONOCYTE [4]: 2.8%
NEUTROPHIL [4]: 16.1%
PLATELET COUNT [4]: 1170 x10E3/uL
ALANINE AMINOTRANSFERASE [4]: 33.33 u/L
ALBUMIN [4]: 3.83 G/DL
ALKALINE PHOSPHATASE [4]: 431 u/L
ASPARTATE AMINOTRANSFERASE [4]: 59 u/L
BLOOD UREA NITROGEN [4]: 13 mg/dL
CARBON DIOXIDE [4]: 38.67 mmol/L
CHLORIDE [4]: 103.33 MEQ/L
CHOLESTEROL [4]: 74 mg/dL
CREATINE PHOSPHOKINASE [4]: 229.33 u/L
CREATININE [4]: 0.3 mg/dL
GLUCOSE [4]: 178 mg/dL
LACTATE DEHYDROGENASE [4]: 77.67 u/L
LIPASE [4]: 8 u/L
PHOSPHORUS [4]: 12.3 mg/dL
POTASSIUM [4]: 6.47 MEQ/L
SODIUM [4]: 144 MEQ/L
TOTAL BILIRUBIN [4]: 0.23 mg/dL
TOTAL PROTEIN [4]: 6.2 G/DL
URIC ACID [4]: 0.9 mg/dL
